US20230045737A1, “SUBSTITUTED ISOINDOLINONES AS MODULATORS OF CEREBLON-MEDIATED NEO-SUBSTRATE RECRUITMENT” (Vividion Therapeutics, Inc., priority 2018, published 2023)

The compounds below were run against CRBN-DDB1 (Homo sapiens, UniProt Q96SW2) (assay: CRBN Fluorescence Polarization Assay with BODIPY-IMid Tracer). Conditions: competition with 30 nM BODIPY-IMiD tracer for 500 nM CRBN-DDB1, 3-fold serial dilution.
Format: binding
Set-up: unit not given here
Procedure: Promega assay was used to compare bifunctional ligands of the present invention to compete with IMiDs tracer binding to CRBN.
25 uM BODIPY-IMiD tracer (aliquots from Promega 160 uM stock solution)
Buffer: 100 mM Tris pH7.5, 150 mM NaCl, no DTT
Plates: PCR plate 96-well, Black 384-well
384-well plate 20 uL total volume
10 uL of CRBN-DDB1, BODIPY-IMiD added to 10 uL of ligand
A full 384-well assay plate was used to test bifunctional compounds with and without protein, Pomalidomide used as a control. Two 96-well PCR plates were prepared as follows: • 1. Plate 1 • a. To wells A1-A11 on a 96-well PCR plate 100 uM bifunctional compound was added to 40 uL total volume • i. 38 uL of buffer was added • ii. 2 uL was added of 2 mM bifunctional or IMiD compound in DMSO or 2 uL of 0.2 mM for CC220 analogs • b. To well A12 Pomalidomide was added as control • i. 38 uL buffer was added • ii. 2 uL of 2 mM Pomalidomide in DMSO was added • 2. Plate 2 • a. To wells A1-A10 on a 96-well PCR plate 100 uM bifunctional compound was added to 40 uL total volume • i. 38 uL of buffer was added • ii. 2 uL of 2 mM bifunctional compound in DMSO was added • b. To well A11 CC220 control was added • i. 38 uL buffer added • ii. 2 uL of 0.2 mM for CC220 was added • c. To well A12 DMSO control was added • i. Added buffer to 38 uL • ii. Added 2 uL of DMSO • 3. Prepared 7 mL of Buffer with 5% DMSO for serial dilution • a. 26.67 uL to rows B-H on 96-well plate • 4. Serial dilutions of samples in row A1 3-fold • a. 13.3 uL of A1 added to 26.67 uL in A2 • 5. Added 10 uL to 384-well plate • a. Added A1 from Plate 1 to wells A1 and A2 on 384-well plate (top half of 384-well plate) • b. Added A1 from Plate 2 to wells I1 and I2 on 384-well plate ([…] of 384-well plate)
A preparation was made of 500 nM CRBN-DDB1, 30 nM IMiD complex. To 4 mL of the prepared 500 nM CRBN-DDB1, 30 nM BODIPY-IMiD was added 47.6 uL of 46 uM CRBN-DDB1, 3.752 mL of Buffer (4 additions of 938 uL), 200 uL of DMSO, and 4.8 uL of 25 uM BODIPY IMiD stock. This incubated at room temperature for 10 minutes and then 10 uL was added to all wells on 384-well plate except wells M23-24, N23-24, O23-24, P23-24. Gain Control samples were then made consisting of 950 uL of Buffer, 50 uL of DMSO, 1.2 uL of 25 uM BODIPY IMiD stock, and 10 uL was added to wells M23-24, N23-24, O23-24, P23-24.

CRBN-DDB1, sequence (Q96SW2 whole entry): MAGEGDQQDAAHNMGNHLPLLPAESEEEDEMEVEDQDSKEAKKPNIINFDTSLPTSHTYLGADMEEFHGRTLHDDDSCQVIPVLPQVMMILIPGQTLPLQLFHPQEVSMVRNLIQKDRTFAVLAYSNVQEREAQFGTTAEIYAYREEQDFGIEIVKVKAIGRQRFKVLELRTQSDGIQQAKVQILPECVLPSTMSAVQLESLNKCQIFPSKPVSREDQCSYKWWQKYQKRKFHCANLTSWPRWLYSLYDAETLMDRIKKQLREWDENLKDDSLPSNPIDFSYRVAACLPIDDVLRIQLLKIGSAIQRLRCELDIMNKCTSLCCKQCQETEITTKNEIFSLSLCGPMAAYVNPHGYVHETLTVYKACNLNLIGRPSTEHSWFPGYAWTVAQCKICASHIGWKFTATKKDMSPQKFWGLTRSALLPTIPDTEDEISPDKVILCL
CRBN-DDB1, sequence (Q16531 whole entry partner): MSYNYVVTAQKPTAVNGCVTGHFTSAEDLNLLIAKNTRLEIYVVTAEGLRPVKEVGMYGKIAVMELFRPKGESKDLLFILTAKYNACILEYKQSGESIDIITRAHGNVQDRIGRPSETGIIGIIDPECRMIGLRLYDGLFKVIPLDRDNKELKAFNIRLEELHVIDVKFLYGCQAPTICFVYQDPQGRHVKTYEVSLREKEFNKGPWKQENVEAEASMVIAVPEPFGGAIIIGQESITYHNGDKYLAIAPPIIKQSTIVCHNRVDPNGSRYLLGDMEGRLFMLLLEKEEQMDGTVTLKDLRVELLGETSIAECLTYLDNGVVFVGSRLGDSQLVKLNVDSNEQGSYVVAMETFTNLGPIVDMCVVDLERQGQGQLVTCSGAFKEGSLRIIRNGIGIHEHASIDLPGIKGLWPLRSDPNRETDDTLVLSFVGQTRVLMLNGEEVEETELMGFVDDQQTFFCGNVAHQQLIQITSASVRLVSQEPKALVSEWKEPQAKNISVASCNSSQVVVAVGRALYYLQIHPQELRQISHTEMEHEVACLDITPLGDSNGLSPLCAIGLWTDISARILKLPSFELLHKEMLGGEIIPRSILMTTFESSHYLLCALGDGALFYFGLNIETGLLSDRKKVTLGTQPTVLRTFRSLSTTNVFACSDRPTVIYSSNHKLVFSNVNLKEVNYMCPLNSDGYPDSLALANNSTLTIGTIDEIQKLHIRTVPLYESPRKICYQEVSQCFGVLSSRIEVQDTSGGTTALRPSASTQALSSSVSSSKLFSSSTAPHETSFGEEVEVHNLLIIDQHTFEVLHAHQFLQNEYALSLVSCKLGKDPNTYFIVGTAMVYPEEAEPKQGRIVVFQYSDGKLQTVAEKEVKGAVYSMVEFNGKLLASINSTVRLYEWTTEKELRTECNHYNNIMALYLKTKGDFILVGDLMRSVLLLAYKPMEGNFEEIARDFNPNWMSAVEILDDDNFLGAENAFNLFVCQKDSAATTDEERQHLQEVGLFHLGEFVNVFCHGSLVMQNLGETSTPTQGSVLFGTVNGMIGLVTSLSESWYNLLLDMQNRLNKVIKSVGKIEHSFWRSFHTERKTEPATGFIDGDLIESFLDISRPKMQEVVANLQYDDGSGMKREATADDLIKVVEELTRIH

Result | SMILES
0.25 | O=C1CC[C@H](N2Cc3c(OCc4ccc(Br)cc4)cccc3C2=O)C(=O)N1 [(S)-3-(4-((4-bromobenzyl)oxy)-1-oxoisoindolin-2-yl)piperidine-2,6-dione]
0.16 | O=C1CCC(N2Cc3c(OCc4ccc(Cn5ccnc5)cc4)cccc3C2=O)C(=O)N1 (stereo not drawn) [3-(4-((4-((1H-imidazol-1-yl)methyl)benzyl)oxy)-1-oxoisoindolin-2-yl)piperidine-2,6-dione]
0.54 | O=C1CC[C@H](N2Cc3cc(OCc4ccccc4)ccc3C2=O)C(=O)N1 [(S)-3-(5-(benzyloxy)-1-oxoisoindolin-2-yl)piperidine-2,6-dione]
1.57 | Nc1cccc2c1C(=O)N(C1CCC(=O)NC1=O)C2=O (stereo not drawn) [Pomalidomide, pomalidomide, reference compound]
0.05 | COC(=O)C1CCN(Cc2ccc(COc3cccc4c3CN(C3CCC(=O)NC3=O)C4=O)cc2)CC1 (stereo not drawn) [methyl 1-(4-(((2-(2,6-dioxopiperidin-3-yl)-1-oxoisoindolin-4-yl)oxy)methyl)benzyl)piperidine-4-carboxylate]
0.16 | O=C1CC[C@@H](N2Cc3c(OCc4ccc(CN5CCOCC5)cc4)cccc3C2=O)C(=O)N1
0.1 | O=C1CC[C@H](N2Cc3c(OCc4ccccc4)ccc(Br)c3C2=O)C(=O)N1 [(S)-3-(4-(benzyloxy)-7-bromo-1-oxoisoindolin-2-yl)piperidine-2,6-dione]
0.94 | O=C1CCC(N2Cc3c(OCc4cc(CN5CCOCC5)ccn4)cccc3C2=O)C(=O)N1 (stereo not drawn) [3-(4-((4-(morpholinomethyl)pyridin-2-yl)methoxy)-1-oxoisoindolin-2-yl)piperidine-2,6-dione]
1.43 | COc1ccc2c(c1)C(=O)N(C1CCC(=O)NC1=O)C2 (stereo not drawn) [3-(6-methoxy-1-oxoisoindolin-2-yl)piperidine-2,6-dione]
0.14 | COC(=O)C1CCN(Cc2ccc(COc3cccc4c3CN(C3CCC(=O)NC3=O)C4=O)cc2)C1 (stereo not drawn) [methyl 1-(4-(((2-(2,6-dioxopiperidin-3-yl)-1-oxoisoindolin-4-yl)oxy)methyl)benzyl)pyrrolidine-3-carboxylate]
0.93 | O=C1CCC(N2Cc3c(OCCO)cccc3C2=O)C(=O)N1 (stereo not drawn) [3-(4-(2-hydroxyethoxy)-1-oxoisoindolin-2-yl)piperidine-2,6-dione]
0.06 | COC(=O)C1CCCN(Cc2ccc(COc3cccc4c3CN(C3CCC(=O)NC3=O)C4=O)cc2)C1 (stereo not drawn) [methyl 1-(4-(((2-(2,6-dioxopiperidin-3-yl)-1-oxoisoindolin-4-yl)oxy)methyl)benzyl)piperidine-3-carboxylate]
